Source: ChEMBL document CHEMBL3871307, “Discovery of Chromane Propionic Acid Analogues as Selective Agonists of GPR120 with in Vivo Activity in Rodents” (ACS Med Chem Lett, 2017)

Key:
[1] = Plasma concentration in wild type C57BL/6 transverse aortic constriction mouse harboring GPR120 at 150 mg/kg, po measured at 3 hrs; type: ADME, organism-based; conditions: C57BL/6, mouse
[2] = Plasma concentration in GPR120 knockout C57BL/6 transverse aortic constriction mouse at 150 mg/kg, po measured at 3 hrs; type: ADME, organism-based; conditions: C57BL/6, mouse

CO[C@H]1C[C@H](Oc2cc(F)c(F)c(-c3ccc4c(c3)CC[C@H](CCC(=O)O)O4)n2)C1
concentration at 3 h [1]: 43.9 µM
concentration at 3 h [2]: 53.4 µM
